Reference: patent US20120295893A1, “COMPOSITIONS AND METHODS OF COUNTERACTING RESIDUAL SEDATIVE EFFECTS OF SLEEP/ HYPNOTIC DRUGS” (COERULEUS LTD., priority 2009, published 2012)
Several values for one entry are separate records, joined by “and”; a condition that tells them apart may be missing. Equal values may be shown once.

Assays:
[1] = test system: sleep/hypnotic effect of zolpidem or brotizolam; assay: Clinical study: Profile Of Mood States (POMS) Brief form; conditions: Baseline sleep (after hypnotic, before oral spray)
[2] = test system: sleep/hypnotic effect of zolpidem or brotizolam; assay: Clinical study: digit symbol substitution test (DSST); conditions: Baseline sleep (after hypnotic, before oral spray)
[3] = Clinical study: vital signs and safety assessments; conditions: Baseline sleep (after hypnotic, before oral spray); for Pulse rate: 10 subjects per hypnotic
[4] = test system: sleep/hypnotic effect of zolpidem or brotizolam; assay: Clinical study: Visual Analogue Scale (sleepiness/vigilance, ability to focus, effectiveness); conditions: Baseline sleep (after hypnotic, before oral spray)
[5] = test system: sleep/hypnotic effect of zolpidem or brotizolam; assay: Clinical study: immediate Word Recall Test (iWRT); conditions: Baseline sleep (after hypnotic, before oral spray)
[6] = test system: Sprague-Dawley™ (SD) rats; assay: Preliminary phase: induction of 'Sleep' by IV diazepam (dose finding); conditions: for mortality after diazepam injection: FDC = Found Dead in the Cage
[7] = test system: diazepam-induced sedative-hypnotic effects; assay: Main phase: locomotor activity in activity cage after diazepam induction; assay type: in vivo, rat
Experimental: (§1) The main phase consisted of 4 groups of n=8 male and female SD rats/group. Induction of sedative-hypnotic effects, as measured by Sleeping Time and locomotor activity, was carried out by two intravenous injections of diazepam at an interval of approximately 2 minutes. The Test, Reference and Control Items were administered twice at interval of 2 minutes as well, about 5 minutes after the second dose of diazepam. Both Test Items FLUMUP-F22 (F22, Table 26 below) and FLUMUP-F26 (F26, Table 26 below) were administered by the sublingual route at a constant dose volume of 0.1 ml/animal per administration. An additional group was administered with FLUMUP Placebo under identical experimental conditions and served as a Control group. A fourth group was subjected to IV injection of the Reference Item under identical experimental conditions. Animals were placed in the activity cage immediately following arousal from ‘Sleep’ or 10 minutes post the second dose of the respective treatment if arousal was not evident.
Males were injected with an initial dose level of 15 mg/kg and approximately 2 minutes later an addition of 5 mg/kg was administered. Females were injected with an initial dose level of 20 mg/kg and approximately 2 minutes later an addition of 5 mg/kg.
(i) The Test and Control Items were administered by the sublingual route twice at an interval of approximately 2 minutes about 5 minutes post the second injection of diazepam. (ii) The Reference Item flumazenil USP was injected twice intravenously at an interval of approximately 2 minutes about 5 minutes post the second injection of diazepam. The Test, Reference and Control Items were administered at a constant dose volume of 0.1 ml/animal per administration over approximately 15 seconds.
Each rat was placed in the center of a special designed commercial activity cage, measuring 40×40×46 cm (TruScan Photo Beam Activity System-Coulbourn Instruments, Allentown, Pa., USA) for a duration of 15 minutes.
Evaluation was based on the relative recorded changes in the measured Sleeping Time and locomotor activity, obtained from the Test & Reference Items-treated animals vs. those of the Control Item group. Data analysis of all measurable parameters was performed by the use of the following methods in order to determine significance of treatment effects: Software: GraphPad Instat®—Version 3.02 (Statistical Method: 1-Way ANOVA; Dunnett Multiple Comparisons Test for locomotor activity parameters; Kruskal-Wallis Test for Sleeping Time data) Microsoft” Excel 2000.

[8] = test system: diazepam-induced sedative-hypnotic effects; assay: Main phase: Sleeping Time (regaining of Righting Reflex) after diazepam induction; assay type: in vivo, rat; conditions: IV, two administrations at 2 min interval after diazepam
Experimental: as §1
Males were injected with an initial dose level of 15 mg/kg and approximately 2 minutes later an addition of 5 mg/kg was administered. […]
Sleeping time was determined for all animals.
Evaluation was based on the relative recorded changes in the measured Sleeping Time and locomotor activity, obtained from the Test & Reference Items-treated animals vs. those of the Control Item group. […]

[9] = in vivo, po; cited from earlier work

SMILES | POMS- fatigue [1] | POMS-Alertness [1] | DSST [2] | Diastolic BP [3] | Systolic BP [3] | Pulse rate [3] | Effectiveness [4] | Focus ability [4] | Vigilance [4] | iWRT [5] | other results
Cc1nnc2n1-c1sc(Br)cc1C(c1ccccc1Cl)=NC2 [Brotizolam] | 7.2 ± 1.2 | 4.3 ± 1.0 | 76.3 ± 7.7 | 69.0 ± 2.8 | 116.9 ± 4.8 | 69.8 ± 1.8 | 2.3 ± 0.3 | 2.4 ± 0.4 | 2.3 ± 0.4 | 7.6 ± 1.3 | –
CN1C(=O)CN=C(c2ccccc2)c2cc(Cl)ccc21 [Diazepam] | – | – | – | – | – | – | – | – | – | – | additional duration of 'Sleep' after supplement dose ([6]; female rat, 20 mg/kg then supplement 5 mg/kg IV): 1180 s; mortality after diazepam injection ([6]; female rat, single dose 25 mg/kg IV, 25 mg/kg): died immediately following injection and FDC; mortality after diazepam injection ([6]; female rat, single dose 25 mg/kg IV, listed as diazepam, 25 mg/kg): death; duration of induced 'Sleep' ([6]; female rats, diazepam 20 mg/kg IV, individual animals): 240 s and 180 s; additional duration of 'Sleep' after supplement dose ([6]; male rat, 15 mg/kg then supplement 5 mg/kg IV): 850 s; duration of induced 'Sleep' ([6]; male rat, diazepam 10 mg/kg IV, single animal): 46 s; duration of induced 'Sleep' ([6]; male rat, diazepam 15 mg/kg IV, single animal): 130 s; duration of induced 'Sleep' ([6]; male rat, diazepam 20 mg/kg IV, single animal): 1700 s; mortality after diazepam injection ([6]; male rat, single dose 20 mg/kg IV, 20 mg/kg): died immediately following injection and FDC; mortality after diazepam injection ([6]; male rat, single dose 20 mg/kg IV, listed as diazepam, 20 mg/kg): death
CCOC(=O)c1ncn2c1CN(C)C(=O)c1cc(F)ccc1-2 [Reference Item] | – | – | – | – | – | – | – | – | – | – | area of the cage where rats moved or stayed ([7]; Area 1 peripheries (normal behavior), Area 2 central, FIG. 11): stayed in the central area of the cage; locomotor activity ([7]; after regaining righting reflex, males and females): very low and similar to that of the control animals; total distance versus Control group ([7]; female rats, 15 min session, diazepam 20+5 mg/kg IV): No statistical significant difference; mean group time spent in the extent of the activity cage versus controls ([7]; male rats): relatively higher; total distance, mean group values versus Control group ([7]; male rats, 15 min session, diazepam 15+5 mg/kg IV): only one out of the four males exhibited higher values; regaining of Righting Reflex (Sleeping Time) [8]: regained their righting reflex very shortly following injection
Cc1ccc(-c2nc3ccc(C)cn3c2CC(=O)N(C)C)cc1 [Zolpidem] | 9.3 ± 1.4 | 1.9 ± 1.0 | 62.5 ± 3.6 | 71.4 ± 1.9 | 119.5 ± 4.0 | 77.5 ± 3.5 | 1.5 ± 0.4 | 1.5 ± 0.4 | 1.4 ± 0.3 | 4.1 ± 0.3 | oral bioavailability [9]: 70%
